What was measured:
Experiment in all cases: Test C pre-/postemergence greenhouse test
Assay type in all cases: in vivo
Conditions in all cases: scale 0 to 100
soybean (Glycine max) = system: soybean (Glycine max)
From the text: (§1) Seeds of plant species selected from blackgrass (Alopecurus myosuroides), ryegrass, Italian (Lolium multiflorum), wheat, winter (winter wheat, Triticum aestivum), galium (catchweed bedstraw, Galium aparine), corn (Zea mays), crabgrass, large (Digitaria sanguinalis), foxtail, giant (Setaria faberii), johnsongrass (Sorghum halepense), lambsquarters (Chenopodium album), morningglory (Ipomoea coccinea), nutsedge, yellow (Cyperus esculentus), pigweed (Amaranthus retroflexus), ragweed (common ragweed, Ambrosia elatior), soybean (Glycine max), barnyardgrass (Echinochloa crus-galli), oilseed rape (Brassica napus), waterhemp (common waterhemp, Amaranthus rudis), pigweed, palmer (Amaranthus palmeri), kochia (Kochia scoparia), oat, wild (Avena fatua), surinam grass (Brachiaria decumbens), windgrass (Apera spica-venti), poinsettia, wild (Euphorbia heterophylla) and velvetleaf (Abutilon theophrasti) were planted into a silt loam soil and treated preemergence with test chemicals formulated in a non-phytotoxic solvent mixture which included a surfactant.
(§2) At the same time, plants selected from these crop and weed species and also chickweed (common chickweed, Stellaria media), buckwheat, wild (Polygonum convolvulus), mustard, wild (Sinapis arvensis), field poppy (Papaver rhoeas), field violet (Viola arvensis), nightshade (eastern black nightshade, Solanum ptycanthum), speedwell (bird's-eye speedwell, Veronica persica), horseweed (Conyza canadensis), cutleaf geranium (Geranium dissectum), and Canada thistle (Cirsium arvense) were planted in pots containing Redi-Earth® planting medium (Scotts Company, 14111 Scottslawn Road, Marysville, Ohio 43041) comprising spaghnum peat moss, vermiculite, wetting agent and starter nutrients and treated with postemergence applications of test chemicals formulated in the same manner. Plants ranged in height from 2 to 18 cm (1- to 4-leaf stage) for postemergence treatments. Treated plants and controls were maintained in a greenhouse for 13 to 21 d, after which time all species were compared to controls and visually evaluated. Plant response ratings, summarized in Table C-1 (postemergence) and C-2 (preemergence), are based on a scale of 0 to 100 where 0 is no effect and 100 is complete control. A dash (-) response means no test result.

[1] = system: galium (catchweed bedstraw, Galium aparine)
From the text: as §1, §2

corn (Zea mays) = system: corn (Zea mays)
From the text: as §1, §2

kochia (Kochia scoparia) = system: kochia (Kochia scoparia)
From the text: as §1, §2

[2] = system: waterhemp (common waterhemp, Amaranthus rudis)
From the text: as §1, §2

[3] = system: ragweed (common ragweed, Ambrosia elatior)
From the text: as §1, §2

[4] = system: oilseed rape (Brassica napus)
From the text: as §1, §2

oat, wild (Avena fatua) = system: oat, wild (Avena fatua)
From the text: as §1, §2

[5] = system: velvetleaf (Abutilon theophrasti)
From the text: as §1, §2

[6] = system: lambsquarters (Chenopodium album)
From the text: as §1, §2

[7] = system: morningglory (Ipomoea coccinea)
From the text: as §1, §2

[8] = system: nutsedge, yellow (Cyperus esculentus)
From the text: as §1, §2

[9] = system: windgrass (Apera spica-venti)
From the text: as §1, §2

[10] = system: pigweed, palmer (Amaranthus palmeri)
From the text: as §1, §2

Cc1ccc2ccc(Cl)cc2c1-c1c(O)c(Cl)nn(C)c1=O [Cpd. No. 22]
Plant response rating, Soybean (soybean (Glycine max); Postemergence, 16 g ai/ha): 5 | Plant response rating, Soybean (soybean (Glycine max); Postemergence, 31 g ai/ha): 10 | Plant response rating, Soybean (soybean (Glycine max); Postemergence, 62 g ai/ha): 20 | Plant response rating, Soybean (soybean (Glycine max); Postemergence, 125 g ai/ha): 25 | Plant response rating, Soybean (soybean (Glycine max); Preemergence, 31 g ai/ha): 5 | Plant response rating, Soybean (soybean (Glycine max); Preemergence, 61 g ai/ha): 0 | Plant response rating, Soybean (soybean (Glycine max); Preemergence, 62 g ai/ha): 0 | Plant response rating, Soybean (soybean (Glycine max); Preemergence, 125 g ai/ha): 30 | Plant response rating, Galium ([1]; Postemergence, 16 g ai/ha): 85 | Plant response rating, Galium ([1]; Postemergence, 31 g ai/ha): 85 | Plant response rating, Galium ([1]; Postemergence, 62 g ai/ha): 95 | Plant response rating, Galium ([1]; Postemergence, 125 g ai/ha): 98 | Plant response rating, Galium ([1]; Preemergence, 31 g ai/ha): 50 | Plant response rating, Galium ([1]; Preemergence, 61 g ai/ha): 20 | Plant response rating, Galium ([1]; Preemergence, 62 g ai/ha): 70 | Plant response rating, Galium ([1]; Preemergence, 125 g ai/ha): 95 | Plant response rating, Corn (corn (Zea mays); Postemergence, 16 g ai/ha): 0 | Plant response rating, Corn (corn (Zea mays); Postemergence, 31 g ai/ha): 20 | Plant response rating, Corn (corn (Zea mays); Postemergence, 62 g ai/ha): 35 | Plant response rating, Corn (corn (Zea mays); Postemergence, 125 g ai/ha): 25 | Plant response rating, Corn (corn (Zea mays); Preemergence, 31 g ai/ha): 10 | Plant response rating, Corn (corn (Zea mays); Preemergence, 61 g ai/ha): 5 | Plant response rating, Corn (corn (Zea mays); Preemergence, 62 g ai/ha): 5 | Plant response rating, Corn (corn (Zea mays); Preemergence, 125 g ai/ha): 30 | Plant response rating, Kochia (kochia (Kochia scoparia); Postemergence, 16 g ai/ha): 25 | Plant response rating, Kochia (kochia (Kochia scoparia); Postemergence, 31 g ai/ha): 35 | Plant response rating, Kochia (kochia (Kochia scoparia); Postemergence, 62 g ai/ha): 65 | Plant response rating, Kochia (kochia (Kochia scoparia); Postemergence, 125 g ai/ha): 70 | Plant response rating, Kochia (kochia (Kochia scoparia); Preemergence, 31 g ai/ha): 5 | Plant response rating, Kochia (kochia (Kochia scoparia); Preemergence, 61 g ai/ha): 0 | Plant response rating, Kochia (kochia (Kochia scoparia); Preemergence, 62 g ai/ha): 80 | Plant response rating, Kochia (kochia (Kochia scoparia); Preemergence, 125 g ai/ha): 95 | Plant response rating, Waterhemp ([2]; Postemergence, 16 g ai/ha): 75 | Plant response rating, Waterhemp ([2]; Postemergence, 31 g ai/ha): 85 | Plant response rating, Waterhemp ([2]; Postemergence, 62 g ai/ha): 85 | Plant response rating, Waterhemp ([2]; Postemergence, 125 g ai/ha): 90 | Plant response rating, Waterhemp ([2]; Preemergence, 31 g ai/ha): 85 | Plant response rating, Waterhemp ([2]; Preemergence, 61 g ai/ha): 70 | Plant response rating, Waterhemp ([2]; Preemergence, 62 g ai/ha): 95 | Plant response rating, Waterhemp ([2]; Preemergence, 125 g ai/ha): 95 | Plant response rating, Ragweed ([3]; Postemergence, 16 g ai/ha): 90 | Plant response rating, Ragweed ([3]; Postemergence, 31 g ai/ha): 95 | Plant response rating, Ragweed ([3]; Postemergence, 62 g ai/ha): 100 | Plant response rating, Ragweed ([3]; Postemergence, 125 g ai/ha): 100 | Plant response rating, Ragweed ([3]; Preemergence, 31 g ai/ha): 60 | Plant response rating, Ragweed ([3]; Preemergence, 61 g ai/ha): 60 | Plant response rating, Ragweed ([3]; Preemergence, 62 g ai/ha): 90 | Plant response rating, Ragweed ([3]; Preemergence, 125 g ai/ha): 100 | Plant response rating, Oilseed Rape ([4]; Postemergence, 16 g ai/ha): 85 | Plant response rating, Oilseed Rape ([4]; Postemergence, 31 g ai/ha): 90 | Plant response rating, Oilseed Rape ([4]; Postemergence, 62 g ai/ha): 95 | Plant response rating, Oilseed Rape ([4]; Postemergence, 125 g ai/ha): 100 | Plant response rating, Oilseed Rape ([4]; Preemergence, 31 g ai/ha): 0 | Plant response rating, Oilseed Rape ([4]; Preemergence, 61 g ai/ha): 0 | Plant response rating, Oilseed Rape ([4]; Preemergence, 62 g ai/ha): 100 | Plant response rating, Oilseed Rape ([4]; Preemergence, 125 g ai/ha): 100 | Plant response rating, Oat, Wild (oat, wild (Avena fatua); Postemergence, 16 g ai/ha): 98 | Plant response rating, Oat, Wild (oat, wild (Avena fatua); Postemergence, 31 g ai/ha): 100 | Plant response rating, Oat, Wild (oat, wild (Avena fatua); Postemergence, 62 g ai/ha): 100 | Plant response rating, Oat, Wild (oat, wild (Avena fatua); Postemergence, 125 g ai/ha): 100 | Plant response rating, Oat, Wild (oat, wild (Avena fatua); Preemergence, 31 g ai/ha): 30 | Plant response rating, Oat, Wild (oat, wild (Avena fatua); Preemergence, 61 g ai/ha): 0 | Plant response rating, Oat, Wild (oat, wild (Avena fatua); Preemergence, 62 g ai/ha): 45 | Plant response rating, Oat, Wild (oat, wild (Avena fatua); Preemergence, 125 g ai/ha): 95 | Plant response rating, Velvetleaf ([5]; Postemergence, 16 g ai/ha): 55 | Plant response rating, Velvetleaf ([5]; Postemergence, 31 g ai/ha): 60 | Plant response rating, Velvetleaf ([5]; Postemergence, 62 g ai/ha): 80 | Plant response rating, Velvetleaf ([5]; Postemergence, 125 g ai/ha): 85 | Plant response rating, Velvetleaf ([5]; Preemergence, 31 g ai/ha): 60 | Plant response rating, Velvetleaf ([5]; Preemergence, 61 g ai/ha): 10 | Plant response rating, Velvetleaf ([5]; Preemergence, 62 g ai/ha): 90 | Plant response rating, Velvetleaf ([5]; Preemergence, 125 g ai/ha): 80 | Plant response rating, Lambsquarters ([6]; Postemergence, 16 g ai/ha): 80 | Plant response rating, Lambsquarters ([6]; Postemergence, 31 g ai/ha): 85 | Plant response rating, Lambsquarters ([6]; Postemergence, 62 g ai/ha): 100 | Plant response rating, Lambsquarters ([6]; Postemergence, 125 g ai/ha): 85 | Plant response rating, Lambsquarters ([6]; Preemergence, 31 g ai/ha): 75 | Plant response rating, Lambsquarters ([6]; Preemergence, 61 g ai/ha): 70 | Plant response rating, Lambsquarters ([6]; Preemergence, 62 g ai/ha): 90 | Plant response rating, Lambsquarters ([6]; Preemergence, 125 g ai/ha): 100 | Plant response rating, Morningglory ([7]; Postemergence, 16 g ai/ha): 85 | Plant response rating, Morningglory ([7]; Postemergence, 31 g ai/ha): 100 | Plant response rating, Morningglory ([7]; Postemergence, 62 g ai/ha): 100 | Plant response rating, Morningglory ([7]; Postemergence, 125 g ai/ha): 100 | Plant response rating, Morningglory ([7]; Preemergence, 31 g ai/ha): 35 | Plant response rating, Morningglory ([7]; Preemergence, 61 g ai/ha): 25 | Plant response rating, Morningglory ([7]; Preemergence, 125 g ai/ha): 85 | Plant response rating, Nutsedge, Yellow ([8]; Postemergence, 16 g ai/ha): 10 | Plant response rating, Nutsedge, Yellow ([8]; Postemergence, 31 g ai/ha): 35 | Plant response rating, Nutsedge, Yellow ([8]; Postemergence, 62 g ai/ha): 90 | Plant response rating, Nutsedge, Yellow ([8]; Postemergence, 125 g ai/ha): 85 | Plant response rating, Nutsedge, Yellow ([8]; Preemergence, 31 g ai/ha): 50 | Plant response rating, Nutsedge, Yellow ([8]; Preemergence, 61 g ai/ha): 25 | Plant response rating, Nutsedge, Yellow ([8]; Preemergence, 62 g ai/ha): 75 | Plant response rating, Nutsedge, Yellow ([8]; Preemergence, 125 g ai/ha): 95 | Plant response rating, Windgrass ([9]; Postemergence, 16 g ai/ha): 85 | Plant response rating, Windgrass ([9]; Postemergence, 31 g ai/ha): 85 | Plant response rating, Windgrass ([9]; Postemergence, 62 g ai/ha): 100 | Plant response rating, Windgrass ([9]; Postemergence, 125 g ai/ha): 100 | Plant response rating, Windgrass ([9]; Preemergence, 31 g ai/ha): 80 | Plant response rating, Windgrass ([9]; Preemergence, 61 g ai/ha): 0 | Plant response rating, Windgrass ([9]; Preemergence, 62 g ai/ha): 85 | Plant response rating, Windgrass ([9]; Preemergence, 125 g ai/ha): 100 | Plant response rating, Pigweed, Palmer ([10]; Postemergence, 16 g ai/ha): 50 | Plant response rating, Pigweed, Palmer ([10]; Postemergence, 31 g ai/ha): 70 | Plant response rating, Pigweed, Palmer ([10]; Postemergence, 62 g ai/ha): 70 | Plant response rating, Pigweed, Palmer ([10]; Postemergence, 125 g ai/ha): 75 | Plant response rating, Pigweed, Palmer ([10]; Preemergence, 31 g ai/ha): 65 | Plant response rating, Pigweed, Palmer ([10]; Preemergence, 61 g ai/ha): 40 | Plant response rating, Pigweed, Palmer ([10]; Preemergence, 62 g ai/ha): 75 | Plant response rating, Pigweed, Palmer ([10]; Preemergence, 125 g ai/ha): 100
